Our source for the GI50 and TGI values is PubChem BioAssay (NCI).

Values joined by “and” are separate entries in the source; they are usually repeats but may differ in a detail not shown here. Equal values may be shown once.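 Where inhibition never reached the appropriate level, the endpoint shown equals the highest concentration tested. Otherwise, values were interpolated linearly from a five-concentration, 48-hour dose response in 96-well plates. The concentration for 50% growth inhibition is given as GI50. TGI marks complete inhibition of growth.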 Some results are limits rather than exact numbers.

Test systems include MDA-MB-231 breast; MCF7 breast; BT-549 breast; LXFL 529 NSCLC.
Test in all cases: DTP human tumour cell line panel, 48 h

As usually defined, the GI50 is the concentration that inhibits growth by half. In general, TGI refers to the concentration giving total growth inhibition. Regarding `NS(=O)(=O)c1ccc(NC(=O)c2ccc(NC3=C(Cl)C(=O)N(Cc4ccccc4)C3=O)cc2)cc1`, in the test on MDA-MB-231 breast, the GI50 is 2.65 µM and the TGI came to 8.11 µM. Further, in the test on MCF7 breast, the GI50 is 3.03 µM and the TGI is greater than 100 µM.
As to `Cc1c2cnccc2c(C)c2c1c1cc(C3OCCCO3)ccc1n2C`, the GI50 in the test with MDA-MB-231 breast is 0.322 µM; with MCF7 breast it was 0.255 µM; in the test with BT-549 breast it was 0.52 µM. Also, the TGI in the test with MDA-MB-231 breast is 1.8 µM; with MCF7 breast it was 1.35 µM; in the test on BT-549 breast, 2.11 µM.
On to `O=[N+]([O-])c1ccc(Nc2ccccc2-c2ccccc2)c2nonc12`, for which the GI50 was 14.5 µM with MDA-MB-231 breast, 15.3 µM with MCF7 breast and 11.5 µM in the test with BT-549 breast. Also, the TGI was 31.2 µM in the test with MDA-MB-231 breast, greater than 72.4 µM in the test with MCF7 breast and 28.8 µM in the test on BT-549 breast.
As for `COc1cccc2c1C(=O)c1c(O)c3c(c(O)c1C2=O)CC(O)(C(C)=O)CC3OC1CC(N)C(O)C(C)O1` (configuration not stated), the GI50 was 0.0409 µg/mL with MDA-MB-231 breast and 0.0458 µg/mL in the test on BT-549 breast. The figures for the TGI in the test on MDA-MB-231 breast, in the test on MCF7 breast and in the test on BT-549 breast were 0.59 µg/mL, 0.484 µg/mL and 0.459 µg/mL, respectively.
On to `COc1cc2c(/C=N\N=C(N)N)c(Cl)[nH]c2cc1C`, for which the GI50 in the test with MDA-MB-231 breast was 6.4 µM; in the test on MCF7 breast it was 6.47 µM; in the test on BT-549 breast it was 13.2 µM. The TGI in the test on MDA-MB-231 breast was determined as 20.8 µM; in the test on MCF7 breast it was 27.5 µM; in the test with BT-549 breast, 27.8 µM.
In the case of `C=C(Cn1c(=O)c2ccccc2c2ccccc21)c1ccc(C(=O)Nc2ccccc2N)cc1`, the figures for the GI50 with MDA-MB-231 breast, with MCF7 breast and with BT-549 breast were 1.75 µM, 69.8 µM and 14.8 µM, respectively. For the same compound, the figures for the TGI in the test on MDA-MB-231 breast, in the test with MCF7 breast and with BT-549 breast were greater than 27.8 µM, greater than 100 µM and 97.7 µM, respectively.
On to `CC(C)=CCN=C(N)N`, for which the total growth inhibition concentration (TGI) in the test on MDA-MB-231 breast, in the test with MCF7 breast and with BT-549 breast was greater than 100 µM each time.
As to `Cc1nc2ccc(CN(C)c3ccc(C(=O)N[C@@H](CCC(=O)O)C(=O)O)s3)cc2c(=O)[nH]1`, the total growth inhibition concentration (TGI) with MDA-MB-231 breast, in the test on MCF7 breast and in the test with BT-549 breast was greater than 100 µM throughout.
Consider `CCSc1nnc2c(-c3ccccc3)n[nH]c2n1`, for which the TGI in the test on MDA-MB-231 breast, in the test on MCF7 breast and in the test with BT-549 breast was greater than 100 µM in each case.
Take `CNC(=O)c1cc(COc2nnc(Nc3ccc(Cl)cc3)c3ccoc23)ccn1`: the GI50 was 3.43 µM and > 10 µM in the test with MDA-MB-231 breast; 7.17 µM and > 10 µM in the test with MCF7 breast; 3.53 µM and > 10 µM in the test on BT-549 breast. Besides, the TGI with MDA-MB-231 breast is 13.8 µM and > 10 µM; in the test with MCF7 breast, 36.1 µM and > 10 µM; with BT-549 breast, 16.6 µM and > 10 µM.
For `CC/C(Cc1ccccc1)=C(\c1ccc(OCCN2CCCCCC2)cc1)c1ccc(OC(=O)NCc2ccccc2)cc1`, the GI50 in the test on MDA-MB-231 breast was 2.59 µM; in the test on MCF7 breast it was 0.25 µM; in the test with BT-549 breast it was 6.74 µM. For the same compound, the TGI in the test with MDA-MB-231 breast stood at 9.02 µM; in the test with MCF7 breast it was 5.33 µM; in the test on BT-549 breast, 14.1 µM.
Regarding `Nc1ncnc2c1ncn2C1OC(COP(=O)(O)CP(=O)(O)O)C(O)C1O` (configuration not stated), the TGI in the test with MCF7 breast and with BT-549 breast was greater than 100 µM in each case.
Regarding `O=C(O)CSCc1cccc2ccccc12`, the TGI with MDA-MB-231 breast, in the test with MCF7 breast and in the test with BT-549 breast was greater than 100 µM throughout.
For the compound `COc1ccc(C#Cc2ccccc2C#CCCCCO)cc1`, the results for the GI50 in the test with MDA-MB-231 breast, in the test on MCF7 breast and in the test with BT-549 breast were 17.3 µM, 27.2 µM and 21.1 µM, respectively. For the same compound, the TGI came out at 32.2 µM with MDA-MB-231 breast, 59.1 µM in the test with MCF7 breast and 46.1 µM in the test with BT-549 breast.
Consider `COC1=CC(c2ccc[nH]2)=N/C1=C\c1[nH]c(C)c(C(=O)OCc2ccccc2)c1C`, for which the GI50 in the test with MDA-MB-231 breast was 0.0379 µM; with MCF7 breast, 0.0894 µM; in the test with BT-549 breast it was 0.253 µM. In addition, the TGI in the test with MDA-MB-231 breast is 0.325 µM; with MCF7 breast, 0.836 µM; in the test on BT-549 breast it was 3.46 µM.
Turning to `C=C1C(=O)O[C@H]2[C@H]1CC/C(CNC(=O)/C=C/c1ccc(Br)cc1)=C\CC[C@@]1(C)O[C@@H]21`, in the test on MDA-MB-231 breast, the GI50 was 1.41 µM and the TGI came out at 2.94 µM. For the same compound, in the test with BT-549 breast, the GI50 is 1.14 µM and the TGI was 2.95 µM.
As to `CN(C)CCCOc1ccccc1NC1=C(Cl)C(=O)C(Nc2ccccc2OCCCN(C)C)=C(Cl)C1=O`, the GI50 with MDA-MB-231 breast was 0.511 µM; in the test on MCF7 breast, 0.175 µM; with BT-549 breast, 1.62 µM. For the same compound, the TGI amounted to 1.4 µM with MDA-MB-231 breast, 0.398 µM in the test with MCF7 breast and 2.99 µM with BT-549 breast.
As to `Cc1nc2sccn2c1/C=C1/C(=O)Nc2ccccc21`, the values for the GI50 with MDA-MB-231 breast, in the test on MCF7 breast and in the test on BT-549 breast were 4.53 µM, 1.02 µM and 17.2 µM, respectively. Further, the TGI is greater than 82.5 µM in the test with MDA-MB-231 breast, greater than 100 µM with MCF7 breast and greater than 100 µM with BT-549 breast.
On to `Cc1ccc(NCCCN2CCN(CCCNc3ccc(C)c4sc5ccccc5c(=O)c34)CC2)c2c(=O)c3ccccc3sc12`, for which the concentration for total growth inhibition (TGI) in the test with MDA-MB-231 breast and with MCF7 breast was greater than 100 µM each time.
Consider `Nc1ccn(C2OC(CO)C(O)C2F)c(=O)n1` (configuration not stated), for which the GI50 in the test with MDA-MB-231 breast was greater than 5000 µM; with MCF7 breast it was 2.98 µM; in the test on BT-549 breast it was greater than 5000 µM. The TGI in the test on MDA-MB-231 breast, in the test with MCF7 breast and with BT-549 breast was greater than 5000 µM in each case.
Consider `COc1cc(C(=O)OCCCCCCCCCCC[P+](c2ccccc2)(c2ccccc2)c2ccccc2)ccc1O`, for which the GI50 in the test on MDA-MB-231 breast was 0.301 µM; in the test on BT-549 breast it was 0.271 µM. Moreover, the results for the TGI in the test with MDA-MB-231 breast and in the test with BT-549 breast were 1.16 µM and 1.26 µM, respectively.
In the case of `COc1cccc(C2CC(c3cc(OC)c(OC)c(OC)c3)=NN2)c1` (configuration not stated), the GI50 with MDA-MB-231 breast was 26.2 µM; with MCF7 breast, 3.85 µM; in the test on BT-549 breast, 3.35 µM. Moreover, the figures for the TGI with MDA-MB-231 breast, with MCF7 breast and in the test with BT-549 breast were greater than 100 µM, 26.1 µM and 19.1 µM, respectively.
`C=CCC1OC(C)(C)Oc2ccc(OCOCCOC)cc21` (configuration not stated) yielded a TGI in the test with LXFL 529 NSCLC greater than 100 µM.
Take `C(=Nc1ccccc1)C1CCCC[N-]1.C(=Nc1ccccc1)C1CCCC[N-]1.[Cu+2].[O-][Cl+3]([O-])([O-])O` (configuration not stated): the GI50 in the test on MDA-MB-231 breast is 9.75 µM; in the test on MCF7 breast, 23.8 µM; in the test with BT-549 breast, 18.5 µM. For the same compound, the results for the TGI with MDA-MB-231 breast, with MCF7 breast and in the test with BT-549 breast were 28.1 µM, greater than 100 µM and 55.8 µM, respectively.
